# Experiment: in vitro
# Conditions: human, hek293t cells
row,Compound,"viability at 48 h, 25 µM"
1,"CCn1nc(C)c(CN(C)C(=O)CCl)c1C [5-A10, 2-chloro-N-[(1-ethyl-3,5-dimethyl-1H-pyrazol-4-yl)methyl]-N-methylacetamide]",1.55%
2,"COc1ccccc1NC(=O)C(C#N)=Cc1ccc(C)s1 [8-B15, 2-cyano-N-(2-methoxyphenyl)-3-(5-methylthiophen-2-yl)prop-2-enamide]",103%
3,"CCc1ccc(NC(=O)CCl)cc1 [4-P03, 2-chloro-N-(4-ethylphenyl)acetamide]",0.338%
4,"COc1cccc2c1CCC2(CO)NC(=O)CCl (centres unmarked) [5-C20, 2-chloro-N-[1-(hydroxymethyl)-4-methoxy-2,3-dihydro-1H-inden-1-yl]acetamide]",58.2%
5,"COC(=O)c1cc(C(=O)CCl)c(C)o1 [10-G13, methyl 4-(2-chloroacetyl)-5-methylfuran-2-carboxylate]",76.4%
6,"CN1CCN(C(=O)Cc2cccc(NC(=O)CCl)c2)CC1 [5-C22, 2-chloro-N-{3-[2-(4-methylpiperazin-1-yl)-2-oxoethyl]phenyl}acetamide]",1.44%
7,"Cc1cc(C(=O)CCl)c(C)[nH]1 [10-J08, 2-chloro-1-(2,5-dimethyl-1H-pyrrol-3-yl)ethan-1-one]",1.07%
8,"C=CC(=O)N(CC)c1cccc(C)c1 [1-A10, N-ethyl-N-(3-methylphenyl)prop-2-enamide]",76.6%
9,"C=CC(=O)N1CCC(C(=O)Nc2cnn(COC)c2)CC1 [2-H10, N-[1-(methoxymethyl)-1H-pyrazol-4-yl]-1-(prop-2-enoyl)piperidine-4-carboxamide]",79%
10,"Cc1cc(C(=O)CCl)c(C)n1-c1ccc(OC(F)F)c(Cl)c1 [10-K04, 2-chloro-1-{1-[3-chloro-4-(difluoromethoxy)phenyl]-2,5-dimethyl-1H-pyrrol-3-yl}ethan-1-one]",0.0199%
11,"C=CC(=O)Nc1cc(C)nn1-c1ccccc1F [2-C15, N-[1-(2-fluorophenyl)-3-methyl-1H-pyrazol-5-yl]prop-2-enamide]",180%
12,"CC1CN(C(=O)C(C#N)=Cc2ccc(OC(F)F)cc2)CC(C)O1 (centres unmarked) [8-G05, 3-[4-(difluoromethoxy)phenyl]-2-(2,6-dimethylmorpholine-4-carbonyl)prop-2-enenitrile]",97.8%
13,"CNC(=O)C(F)(F)C1(O)CCN(C(=O)CCl)CC1 [5-F03, 2-[1-(2-chloroacetyl)-4-hydroxypiperidin-4-yl]-2,2-difluoro-N-methylacetamide]",1.94%
14,"CC(NC(=O)C(C#N)=Cc1cccc(F)c1)c1ccccc1 (centres unmarked) [8-L18, 2-cyano-3-(3-fluorophenyl)-N-(1-phenylethyl)prop-2-enamide]",34.6%
15,"C=CC(=O)N1CCC(C(=O)NCc2ccccc2)CC1 [1-I05, N-benzyl-1-(prop-2-enoyl)piperidine-4-carboxamide]",86.7%
16,"C=CC(=O)NC(c1ccc(F)cc1)c1ccccn1 (centres unmarked) [3-N14, N-[(4-fluorophenyl)(pyridin-2-yl)methyl]prop-2-enamide]",97%
17,"C=CC(=O)NC(C)c1cn(-c2ccccc2)nn1 (centres unmarked) [1-N04, N-[1-(1-phenyl-1H-1,2,3-triazol-4-yl)ethyl]prop-2-enamide]",78.9%
18,"O=C(CCl)c1cscn1 [10-L08, 2-chloro-1-(1,3-thiazol-4-yl)ethan-1-one]",59.2%
19,"C=CC(=O)N1CCC(C(=O)NCCO)CC1 [3-C18, N-(2-hydroxyethyl)-1-(prop-2-enoyl)piperidine-4-carboxamide]",72.9%
20,"CCCn1c(N)c(C(=O)CCl)c(=O)[nH]c1=O [10-L10, 6-amino-5-(2-chloroacetyl)-1-propyl-1,2,3,4-tetrahydropyrimidine-2,4-dione]",97.8%
21,"COc1ccc2ccccc2c1C=C(C#N)C(=O)NC1CCCCC1 [8-P18, 2-cyano-N-cyclohexyl-3-(2-methoxynaphthalen-1-yl)prop-2-enamide]",66.4%
22,"Cc1cccc(C)c1NC(=O)CCl [5-P20, 2-chloro-N-(2,6-dimethylphenyl)acetamide]",112%
23,"CC(C#N)CSc1ccccc1NC(=O)CCl (centres unmarked) [6-K16, 2-chloro-N-{2-[(2-cyano-2-methylethyl)sulfanyl]phenyl}acetamide]",1.3%
24,"CC(c1cnn(C)c1)N(C)C(=O)CCl (centres unmarked) [5-M04, 2-chloro-N-methyl-N-[1-(1-methyl-1H-pyrazol-4-yl)ethyl]acetamide]",1.55%
25,"C=CC(=O)Nc1ccccc1C1CC1(F)F (centres unmarked) [1-M15, N-[2-(2,2-difluorocyclopropyl)phenyl]prop-2-enamide]",86.4%
26,"N#CC(=Cc1cccc2ccccc12)C(=O)NC1CC1 [9-O03, 2-cyano-N-cyclopropyl-3-(naphthalen-1-yl)prop-2-enamide]",116%
27,"O=C(CCl)NCC1CN(Cc2ccccc2)CCO1 (centres unmarked) [4-H18, N-[(4-benzylmorpholin-2-yl)methyl]-2-chloroacetamide]",87.2%

row,Compound,"viability at 48 h, 25 µM"
1,"CC(Cl)C(=O)Nc1ccc([N+](=O)[O-])cc1C#N (centres unmarked) [5-I15, 2-chloro-N-(2-cyano-4-nitrophenyl)propanamide]",78.6%
2,"Cc1ccc(C2OCCCC2CNC(=O)C(C)Cl)cc1 (centres unmarked) [7-B09, 2-chloro-N-{[2-(4-methylphenyl)oxan-3-yl]methyl}propanamide]",91.9%
3,"COc1ccc2ccccc2c1C=C(C#N)C(=O)N1CCCC1 [8-P12, 3-(2-methoxynaphthalen-1-yl)-2-(pyrrolidine-1-carbonyl)prop-2-enenitrile]",75.4%
4,"COc1ccc(C=C(C#N)C(=O)Nc2ccccc2[N+](=O)[O-])cc1 [8-G03, 2-cyano-3-(4-methoxyphenyl)-N-(2-nitrophenyl)prop-2-enamide]",96.8%
5,"CC(Cl)C(=O)NCc1conc1C1CCC1 (centres unmarked) [5-L21, 2-chloro-N-[(3-cyclobutyl-1,2-oxazol-4-yl)methyl]propanamide]",101%
6,"CC(Cl)C(=O)NC(C)c1ccns1 (centres unmarked) [6-P12, 2-chloro-N-[1-(1,2-thiazol-5-yl)ethyl]propanamide]",115%
7,"Cc1cc(C=C(C#N)C(=O)Nc2ccccc2)c(C)n1CC(C)C [9-A07, 2-cyano-3-[2,5-dimethyl-1-(2-methylpropyl)-1H-pyrrol-3-yl]-N-phenylprop-2-enamide]",115%
8,"CC(Cl)C(=O)N(C)C(C)c1cccc(NC(=O)c2ccccc2)c1 (centres unmarked) [6-J14, N-{3-[1-(2-chloro-N-methylpropanamido)ethyl]phenyl}benzamide]",111%
9,"O=C(CCl)NC(c1ccccc1)c1ccccc1 [6-M12, 2-chloro-N-(diphenylmethyl)acetamide]",0.81%
10,"C=CC(=O)N1CCC(C(=O)NC(C)c2cccc(C(F)(F)F)c2)CC1 (centres unmarked) [3-G13, 1-(prop-2-enoyl)-N-{1-[3-(trifluoromethyl)phenyl]ethyl}piperidine-4-carboxamide]",40.6%
11,"C=CC(=O)Nc1ccc(C(=O)N2CCCCC2c2noc(C)n2)cc1 (centres unmarked) [2-C20, N-{4-[2-(5-methyl-1,2,4-oxadiazol-3-yl)piperidine-1-carbonyl]phenyl}prop-2-enamide]",77.3%
12,"N#CC(=Cc1ccc(O)cc1)C(=O)NCCc1c(F)cccc1F [9-I16, 2-cyano-N-[2-(2,6-difluorophenyl)ethyl]-3-(4-hydroxyphenyl)prop-2-enamide]",121%
13,"C=CC(=O)N(CC)CC(=O)N1CCNC(=O)C1c1cccs1 (centres unmarked) [3-G07, N-ethyl-N-{2-oxo-2-[3-oxo-2-(thiophen-2-yl)piperazin-1-yl]ethyl}prop-2-enamide]",40%
14,"C=CC(=O)N1CCC(C(=O)N(C)Cc2ccc([S+](C)[O-])cc2)CC1 (centres unmarked) [2-D06, N-[(4-methanesulfinylphenyl)methyl]-N-methyl-1-(prop-2-enoyl)piperidine-4-carboxamide]",76.4%
15,"CS(=O)(=O)c1ccc(CNC(=O)CCl)cc1 [6-O12, 2-chloro-N-[(4-methanesulfonylphenyl)methyl]acetamide]",1.69%
16,"O=C(CCl)Nc1ccnn1Cc1ccccc1Cl [6-O08, 2-chloro-N-{1-[(2-chlorophenyl)methyl]-1H-pyrazol-5-yl}acetamide]",0.422%
17,"N#CC(=Cc1ccc(O)cc1)C(=O)Nc1ccc(Cl)cc1Cl [9-G22, 2-cyano-N-(2,4-dichlorophenyl)-3-(4-hydroxyphenyl)prop-2-enamide]",82.3%
18,"CC(Cl)C(=O)NCC(c1ccc(Cl)cc1)n1cccn1 (centres unmarked) [7-J05, 2-chloro-N-[2-(4-chlorophenyl)-2-(1H-pyrazol-1-yl)ethyl]propanamide]",100%
19,"CCn1c2ccccc2c2cc(NC(=O)C(C)Cl)ccc21 (centres unmarked) [4-E12, 2-chloro-N-(9-ethyl-9H-carbazol-3-yl)propanamide]",55.6%
20,"C=CC(=O)N(C)CC(=O)N1CCn2cccc2C1C (centres unmarked) [2-K10, N-methyl-N-(2-{1-methyl-1H,2H,3H,4H-pyrrolo[1,2-a]pyrazin-2-yl}-2-oxoethyl)prop-2-enamide]",101%
21,"CCCn1c(C)cc(C=C(C#N)C(=O)Nc2ccc3c(c2)OCO3)c1C [9-G07, N-(1,3-dioxaindan-5-yl)-2-cyano-3-(2,5-dimethyl-1-propyl-1H-pyrrol-3-yl)prop-2-enamide]",100%
22,"C=CC(=O)N1CCC(C(=O)NC2CCN(C(=O)C(C)(C)C)CC2)CC1 [3-I21, N-[1-(2,2-dimethylpropanoyl)piperidin-4-yl]-1-(prop-2-enoyl)piperidine-4-carboxamide]",52.8%
23,"O=C(CCl)NCc1ccccc1Cn1cccn1 [5-P06, 2-chloro-N-({2-[(1H-pyrazol-1-yl)methyl]phenyl}methyl)acetamide]",94%
24,"Cc1cc(CN(C(=O)CCl)C2CCCC2)c2ccccc2n1 [7-B20, 2-chloro-N-cyclopentyl-N-[(2-methylquinolin-4-yl)methyl]acetamide]",0.493%
25,"CCOc1ccc(C=C(C#N)C(=O)Nc2cccc3ncccc23)cc1 [8-A07, 2-cyano-3-(4-ethoxyphenyl)-N-(quinolin-5-yl)prop-2-enamide]",60.7%
26,"CC1CC1c1ccc(C=C(C#N)C(=O)Nc2ccc(C(=O)O)cc2)o1 (centres unmarked) [9-G16, 4-{2-cyano-3-[5-(2-methylcyclopropyl)furan-2-yl]prop-2-enamido}benzoic acid]",133%
